pIC50: −log10 of the molar value.

As usually defined, the IC50 is the concentration at which inhibition is half-maximal. In general, pIC50 refers to the negative decadic logarithm of the IC50, by convention in mol/L.

The target in assay [1] is recombinant poly(ADP-ribose) polymerase 2 (PARP2) (Homo sapiens, UniProt Q9UGN5). As to the kind of experiment: PARP2 chemiluminescent assay. The note with it: inhibition of PARP2 enzyme activity, chemiluminescence. Type of assay: biochemical.
For another assay, the target named is PDE3A (Homo sapiens (Human), UniProt Q14432). In words: PDE3A fluorescence polarization (FP) assay. Type of assay: biochemical. The note with it: PDE3A enzyme activity, FAM-cAMP substrate. (Fluorescence polarisation rises when a labelled molecule tumbles more slowly, as on binding a larger partner.)
The next assay deals with MDA-MB-436 cells. In words: Growth inhibition assay against BRCA mutant human breast cancer MDA-MB-436 cell line (CCK-8). The class given is cell-based. The following applies: Homo sapiens, MDA-MB-436, […], proliferation of MDA-MB-436 cells, 7 days.
Assay [2] concerns the target recombinant poly(ADP-ribose) polymerase 2 (PARP2). In words: PARP2 chemiluminescent assay. The class given is biochemical. The note with it: inhibition of PARP2 enzyme activity, chemiluminescence.
Assay [3] has as its target recombinant poly(ADP-ribose) polymerase 1 (PARP1) (Homo sapiens (Human), UniProt P09874).

Chain of PDE3A (Q14432 whole entry): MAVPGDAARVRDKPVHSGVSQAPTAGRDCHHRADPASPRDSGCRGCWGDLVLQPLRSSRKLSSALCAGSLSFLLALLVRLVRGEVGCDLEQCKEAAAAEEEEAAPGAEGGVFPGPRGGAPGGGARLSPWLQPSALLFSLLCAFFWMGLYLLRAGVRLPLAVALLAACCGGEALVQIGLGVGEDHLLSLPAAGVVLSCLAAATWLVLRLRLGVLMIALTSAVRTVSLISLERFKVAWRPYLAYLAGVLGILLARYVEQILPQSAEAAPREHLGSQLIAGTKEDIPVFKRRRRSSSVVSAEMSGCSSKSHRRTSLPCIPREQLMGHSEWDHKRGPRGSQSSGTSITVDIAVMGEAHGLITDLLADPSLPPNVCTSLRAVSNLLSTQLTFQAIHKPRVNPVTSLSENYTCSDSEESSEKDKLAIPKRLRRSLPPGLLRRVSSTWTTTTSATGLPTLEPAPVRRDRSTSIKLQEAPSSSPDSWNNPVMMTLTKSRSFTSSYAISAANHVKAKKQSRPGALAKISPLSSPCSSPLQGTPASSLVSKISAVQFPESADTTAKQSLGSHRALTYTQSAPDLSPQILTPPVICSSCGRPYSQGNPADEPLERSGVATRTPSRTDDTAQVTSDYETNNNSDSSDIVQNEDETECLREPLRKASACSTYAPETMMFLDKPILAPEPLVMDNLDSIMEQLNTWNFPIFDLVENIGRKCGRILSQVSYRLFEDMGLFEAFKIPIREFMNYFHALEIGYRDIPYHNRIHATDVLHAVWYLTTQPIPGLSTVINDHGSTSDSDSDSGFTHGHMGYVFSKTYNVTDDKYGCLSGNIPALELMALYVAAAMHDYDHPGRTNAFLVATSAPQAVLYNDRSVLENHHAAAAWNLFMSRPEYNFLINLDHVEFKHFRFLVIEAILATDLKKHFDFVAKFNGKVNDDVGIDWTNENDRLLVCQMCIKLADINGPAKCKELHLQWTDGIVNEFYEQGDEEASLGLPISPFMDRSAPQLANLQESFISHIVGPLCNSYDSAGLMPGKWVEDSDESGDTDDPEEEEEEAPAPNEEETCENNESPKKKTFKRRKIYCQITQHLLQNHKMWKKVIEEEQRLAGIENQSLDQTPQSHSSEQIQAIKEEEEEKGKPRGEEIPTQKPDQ
Chain of recombinant poly(ADP-ribose) polymerase 1 (PARP1) (P09874 whole entry): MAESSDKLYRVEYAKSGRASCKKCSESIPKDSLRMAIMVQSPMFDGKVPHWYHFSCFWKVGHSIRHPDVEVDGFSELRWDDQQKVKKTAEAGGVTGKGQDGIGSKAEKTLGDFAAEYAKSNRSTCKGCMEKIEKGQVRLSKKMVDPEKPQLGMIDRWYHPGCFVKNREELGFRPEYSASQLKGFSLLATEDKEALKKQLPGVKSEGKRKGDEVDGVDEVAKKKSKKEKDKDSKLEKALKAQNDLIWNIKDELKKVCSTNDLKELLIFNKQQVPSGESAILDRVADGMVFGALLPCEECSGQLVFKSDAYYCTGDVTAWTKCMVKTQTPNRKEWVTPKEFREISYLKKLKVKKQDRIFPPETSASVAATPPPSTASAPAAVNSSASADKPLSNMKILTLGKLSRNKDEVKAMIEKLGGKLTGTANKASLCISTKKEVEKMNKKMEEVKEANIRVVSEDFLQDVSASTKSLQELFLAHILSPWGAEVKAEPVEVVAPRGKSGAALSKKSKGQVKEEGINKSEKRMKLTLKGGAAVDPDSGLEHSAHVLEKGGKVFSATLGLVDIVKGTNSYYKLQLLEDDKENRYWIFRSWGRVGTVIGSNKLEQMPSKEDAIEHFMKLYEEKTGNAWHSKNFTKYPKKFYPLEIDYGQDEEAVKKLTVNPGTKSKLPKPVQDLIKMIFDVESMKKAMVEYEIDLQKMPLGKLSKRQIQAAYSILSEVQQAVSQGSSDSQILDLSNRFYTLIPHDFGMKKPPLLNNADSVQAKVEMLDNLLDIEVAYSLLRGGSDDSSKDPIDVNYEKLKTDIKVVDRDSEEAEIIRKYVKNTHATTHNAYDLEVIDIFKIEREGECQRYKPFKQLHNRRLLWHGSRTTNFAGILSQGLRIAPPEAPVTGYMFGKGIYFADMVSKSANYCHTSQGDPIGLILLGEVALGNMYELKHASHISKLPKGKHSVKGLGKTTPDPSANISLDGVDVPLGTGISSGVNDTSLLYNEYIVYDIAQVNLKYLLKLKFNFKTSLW
Chain of recombinant poly(ADP-ribose) polymerase 2 (PARP2) (Homo sapiens, UniProt Q9UGN5) (Q9UGN5 whole entry, looked up): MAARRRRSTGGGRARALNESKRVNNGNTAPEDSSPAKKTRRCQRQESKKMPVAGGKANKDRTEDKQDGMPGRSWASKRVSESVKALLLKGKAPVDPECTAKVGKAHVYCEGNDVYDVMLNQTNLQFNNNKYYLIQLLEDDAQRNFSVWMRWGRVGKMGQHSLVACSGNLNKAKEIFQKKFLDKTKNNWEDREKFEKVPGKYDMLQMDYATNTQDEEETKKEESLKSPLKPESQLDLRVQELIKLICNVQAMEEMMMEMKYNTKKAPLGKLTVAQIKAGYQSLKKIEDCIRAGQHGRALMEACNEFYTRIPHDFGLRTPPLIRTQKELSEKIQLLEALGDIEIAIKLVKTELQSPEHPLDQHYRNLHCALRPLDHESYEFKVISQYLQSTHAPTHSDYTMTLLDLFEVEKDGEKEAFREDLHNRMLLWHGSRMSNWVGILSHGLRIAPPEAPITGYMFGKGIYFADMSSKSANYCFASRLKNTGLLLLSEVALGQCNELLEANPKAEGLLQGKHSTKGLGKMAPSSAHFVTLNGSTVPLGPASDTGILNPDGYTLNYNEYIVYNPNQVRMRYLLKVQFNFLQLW
Experimental for PDE3A: A PDE3A fluorescence polarization (FP) assay in a multi-step format was performed using black, round bottom 384-well plates (Corning, 4514). The testing compounds were serially diluted from stock solutions to 11 concentrations with a 3-fold dilution factor using DMSO. Fifty nl of compound dilutions was mixed with 5 μl of reaction buffer (10 mM Tris-HCl, pH 7.2, 10 mM MgCl2, 0.05% NaN3, 0.1% phosphate-free BSA) containing 0.2 μM FAM-cAMP (BPS, 60200) and 2 nM PDE3A (Sino Biological, 11908-H20B1) enzyme, and incubated for 60 min at 25° C. Afterwards, 15 μl binding agent mixture (Molecular Devices, R8124) was added to each well and the plate was incubated for 60 min at 25° C. The plate was loaded to a BMG PHERAstar FSX to read Fluorescence Polarization (FP) values at a setting of: Ex: 485 nm and Em: 520 nm. Emission light intensity with polarizers parallel (Emi) and emission light intensity with polarizers perpendicular (Emi) were recorded. The Polarization (mP) values were calculated using the following formula: mP=(SignalEml−SignalEm⊥)/(SignalEml+SignalEm⊥).
• 1) The inhibition % of a compound dose is calculated as:
[formula] • wherein mPMin and mPMax refer to the polarization readings in the condition of substrate only and substrate+enzyme, respectively. • 2) The IC50 values were calculated from non-linear curve fitting using following regression equation using a commercial curve fitting software GraphPad Prism 9.2.0.
[formula] • wherein, X refers to Log of compound concentration and Y refers to % Inhibition.

For `CNC(=O)c1ccc(N2CCN(Cc3ccc4c(c3)[nH]c(=O)c3ccsc34)CC2)c(C)n1` [Example 1, 7-((4-(2-methyl-6-(methylcarbamoyl)pyridin-3-yl)piperazin-1-yl)methyl)thieno[3,2-c]quinolin-4(5H)-one], the IC50 in assay [1] came out at 78 nM.

Regarding `CNC(=O)c1ccc(N2CCN(Cc3ccc4c(c3)[nH]c(=O)c3cscc34)CC2)c(C)n1` [Example 3, 7-((4-(2-methyl-6-(methylcarbamoyl)pyridin-3-yl)piperazin-1-yl)methyl)thieno[3,4-c]quinolin-4(5H)-one], the IC50 in assay [1] is 18.3 nM.

Turning to `CNC(=O)c1ccc(N2CCN(Cc3ccc4c(c3)[nH]c(=O)c3sccc34)CC2)c(C)n1` [Example 5, 7-((4-(2-methyl-6-(methylcarbamoyl)pyridin-3-yl)piperazin-1-yl)methyl)thieno[2,3-c]quinolin-4(5H)-one], the IC50 in assay [1] amounted to 10.1 nM.

As to `Cc1cnn2c1c(=O)[nH]c1c(F)c(CN3CCN(c4ccc(C(=O)NC5CC5)nc4F)CC3)ccc12` [Example 126, 7-((4-(2-fluoro-6-(cyclopropylcarbamoyl)pyridin-3-yl)piperazin-1-yl)methyl)-6-fluoro-3-methylpyrazolo[1,5-a]quinoxalin-4(5H)-one], the pIC50 is less than 4.60 on PDE3A, 8.35 in the assay with MDA-MB-436 cells and 9.32 in assay [3]. Moreover, the IC50 in assay [2] amounted to 731 nM.

In the case of `CNC(=O)c1ccc(N2CCN(Cc3ccc4c([nH]c(=O)c5c(C)cnn54)c3F)CC2)c(C#N)n1` [Example 128, 7-((4-(2-cyano-6-(methylcarbamoyl)pyridin-3-yl)piperazin-1-yl)methyl)-6-fluoro-3-methylpyrazolo[1,5-a]quinoxalin-4(5H)-one], the results for the pIC50 (at PDE3A; in the assay with MDA-MB-436 cells; in assay [3]) were less than 4.52, 8.80 and 9.32, respectively. Further, the IC50 in assay [2] was 2500 nM.

As to `Cc1cnn2c1c(=O)[nH]c1c(F)c(CN3CCN(c4ccc(C(=O)NCC(F)F)nc4F)CC3)ccc12` [Example 129, 7-((4-(2-fluoro-6-(2,2-difluoroethylcarbamoyl)pyridin-3-yl)piperazin-1-yl)methyl)-6-fluoro-3-methylpyrazolo[1,5-a]quinoxalin-4(5H)-one], the pIC50 is less than 4.52 against PDE3A, 8.30 with MDA-MB-436 cells and 9.30 in assay [3]. Also, the IC50 in assay [2] was greater than 10000 nM.

Regarding `CNC(=O)c1ccc(N2CCN(Cc3ccc4c([nH]c(=O)c5c(C)cnn54)c3F)CC2)c(C(F)(F)F)n1` [Example 133, 7-((4-(2-trifluoromethyl-6-(methylcarbamoyl)pyridin-3-yl)piperazin-1-yl)methyl)-6-fluoro-3-methylpyrazolo[1,5-a]quinoxalin-4(5H)-one], the results for the pIC50 (against PDE3A; in the assay on MDA-MB-436 cells; in assay [3]) were less than 4.52, 7.64 and 9.24, respectively. In addition, in assay [2], the IC50 is greater than 10000 nM.

Consider `CNC(=O)c1ccc(N2CCN(Cc3ccc4c([nH]c(=O)n5cc(C)nc45)c3F)CC2)c(F)n1` [Example 140, 8-((4-(2-fluoro-6-(methylcarbamoyl)pyridin-3-yl)piperazin-1-yl)methyl)-2-methyl-7-fluoroimidazo[1,2-c]quinazolin-5(6H)-one], for which the results for the pIC50 (at PDE3A; with MDA-MB-436 cells; in assay [3]) were 4.54, 8.65 and 9.08, respectively. Further, the concentration for half-maximal inhibition (IC50) in assay [2] came out at 1250 nM.

As for `CNC(=O)c1ccc(N2CCN(Cc3ccc4c([nH]c(=O)n5c(C)cnc45)c3F)CC2)c(F)n1` [Example 141, 8-((4-(2-fluoro-6-(methylcarbamoyl)pyridin-3-yl)piperazin-1-yl)methyl)-3-methyl-7-fluoroimidazo[1,2-c]quinazolin-5(6H)-one], the pIC50 at PDE3A is less than 4.60; with MDA-MB-436 cells, 7.61; in assay [3], 8.89. Moreover, the IC50 in assay [2] worked out at 1890 nM.

As to `CNC(=O)c1ccc(N2CCN(Cc3ccc4c(c3)[nH]c(=O)c3cocc34)CC2)c(F)n1` [Example 143, 7-((4-(2-fluoro-6-(methylcarbamoyl)pyridin-3-yl)piperazin-1-yl)methyl)furo[3,4-c]quinolin-4(5H)-one], the pIC50 on PDE3A is 5.92; in the assay with MDA-MB-436 cells it was 8.46; in assay [3], 9.34. Moreover, in assay [2], the IC50 worked out at 166 nM.

As for `CNC(=O)c1ccc(N2CCN(Cc3cc4[nH]c(=O)c5c(C)cnn5c4cc3F)CC2)c(F)n1` [Example 168, 8-fluoro-7-((4-(2-fluoro-6-(methylcarbamoyl)pyridin-3-yl)piperazin-1-yl)methyl)-3-methylpyrazolo[1,5-a]quinoxalin-4(5H)-one], the pIC50 against PDE3A was less than 4.52; with MDA-MB-436 cells it was 8.10; in assay [3], 9.21. Moreover, in assay [2], the IC50 amounted to 145 nM.

Consider `CNC(=O)c1ccc(N2CCN(Cc3cc(F)c4c(c3)[nH]c(=O)c3c(F)cnn34)CC2)c(F)n1` [Example 177, 3,9-difluoro-7-((4-(2-fluoro-6-(methylcarbamoyl)pyridin-3-yl)piperazin-1-yl)methyl)pyrazolo[1,5-a]quinoxalin-4(5H)-one], for which the pIC50 against PDE3A is 6.20; with MDA-MB-436 cells it was 8.80; in assay [3] it was 9.49. In addition, the IC50 in assay [2] was 93.5 nM.

As to `CNC(=O)c1ccc(N2CCN(Cc3ccc4c([nH]c(=O)c5c(C(F)(F)F)cnn54)c3F)CC2)c(F)n1` [Example 179, 7-((4-(2-fluoro-6-(methylcarbamoyl)pyridin-3-yl)piperazin-1-yl)methyl)-3-trifluoromethyl-6-fluoropyrazolo[1,5-a]quinoxalin-4(5H)-one], the negative-log IC50 (pIC50) is less than 4.52 against PDE3A, 8.35 in the assay with MDA-MB-436 cells and 9.30 in assay [3]. For the same molecule, the IC50 in assay [2] came out at 67.1 nM.

As for `CCNC(=O)c1ccc(N2CCN(Cc3ccc4c([nH]c(=O)c5c(F)cnn54)c3F)CC2)c(F)n1` [Example 180, 7-((4-(2-fluoro-6-(ethylcarbamoyl)pyridin-3-yl)piperazin-1-yl)methyl)-3,6-difluoropyrazolo[1,5-a]quinoxalin-4(5H)-one], the results for the pIC50 (on PDE3A; in the assay on MDA-MB-436 cells; in assay [3]) were less than 4.52, 8.91 and 9.62, respectively. Besides, in assay [2], the IC50 came out at 431 nM.

`O=C(NC1CC1)c1ccc(N2CCN(Cc3ccc4c([nH]c(=O)c5c(F)cnn54)c3F)CC2)c(F)n1` [Example 181, 7-((4-(2-fluoro-6-(cyclopropylcarbamoyl)pyridin-3-yl)piperazin-1-yl)methyl)-3,6-difluoropyrazolo[1,5-a]quinoxalin-4(5H)-one]: the results for the pIC50 (on PDE3A; with MDA-MB-436 cells; in assay [3]) were less than 4.52, 8.72 and 9.64, respectively. Moreover, the IC50 in assay [2] turned out to be 315 nM.

Consider `CNC(=O)c1ccc(N2CCN(Cc3cc4[nH]c(=O)c5c(F)cnn5c4cc3F)CC2)c(F)n1` [Example 182, 7-((4-(2-fluoro-6-(methylcarbamoyl)pyridin-3-yl)piperazin-1-yl)methyl)-3,8-difluoropyrazolo[1,5-a]quinoxalin-4(5H)-one], for which the pIC50 against PDE3A is less than 4.52; in the assay with MDA-MB-436 cells it was 8.85; in assay [3] it was 9.49. Further, the IC50 in assay [2] is 93.5 nM.

With `CNC(=O)c1ccc(N2CCN(Cc3cc4[nH]c(=O)c5c(F)cnn5c4cc3F)CC2)c(C)n1` [Example 183, 7-((4-(2-methyl-6-(methylcarbamoyl)pyridin-3-yl)piperazin-1-yl)methyl)-3,8-difluoropyrazolo[1,5-a]quinoxalin-4(5H)-one], the pIC50 was 5.80 against PDE3A, 8.75 in the assay on MDA-MB-436 cells and 9.55 in assay [3]. Also, the IC50 in assay [2] amounted to 1390 nM.
